Assay [1] concerns the target T1, Ubiquitin-conjugating enzyme E2 N (Homo sapiens, UniProt P61088).
T1 sequence (P61088 whole entry): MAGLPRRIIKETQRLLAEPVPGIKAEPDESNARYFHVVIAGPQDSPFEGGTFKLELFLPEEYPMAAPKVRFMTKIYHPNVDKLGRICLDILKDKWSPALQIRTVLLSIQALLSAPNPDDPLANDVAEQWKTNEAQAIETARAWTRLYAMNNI
In kind it is functional.

The target in assay [2] is T2, Bcl-2-related protein A1 (Mus musculus, UniProt Q07440).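 Also: confirmatory dose–response counterscreen on Bfl-1, used to check hits from a UBC13 polyubiquitin inhibitor campaign.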
T2 sequence (Q07440 whole entry): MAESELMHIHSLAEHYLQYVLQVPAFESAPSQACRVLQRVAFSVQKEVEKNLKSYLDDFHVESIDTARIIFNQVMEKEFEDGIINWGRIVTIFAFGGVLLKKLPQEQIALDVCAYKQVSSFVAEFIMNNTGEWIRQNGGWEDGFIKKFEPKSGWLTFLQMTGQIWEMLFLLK
Format: functional.

Assay [3] relates to Streptococcus. Briefly: Group A Streptococcus viability loss, dose response, counter-screen for streptokinase expression inhibitor project, luminescence, BacTiterGlo (AID 1915).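 Also: potency for reduction of bacterial viability or growth.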 In kind it is functional, organism-based.
Assay [4] is described as follows: NIH-3T3 fibroblast cytotoxicity, dose response, cytotoxicity control, cell-based, fluorescence, Alamar Blue, secondary assay (AID 2327).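 Also: NIH-3T3 mouse fibroblasts cultured with fluconazole at 8 µg/mL.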 In kind it is functional. A general note: The colour change of resazurin is a common sign of viable cells or microbes.
Assay [5] concerns the target T3, Apoptotic protease-activating factor 1 (Homo sapiens, UniProt O14727).
T3 sequence (O14727 whole entry): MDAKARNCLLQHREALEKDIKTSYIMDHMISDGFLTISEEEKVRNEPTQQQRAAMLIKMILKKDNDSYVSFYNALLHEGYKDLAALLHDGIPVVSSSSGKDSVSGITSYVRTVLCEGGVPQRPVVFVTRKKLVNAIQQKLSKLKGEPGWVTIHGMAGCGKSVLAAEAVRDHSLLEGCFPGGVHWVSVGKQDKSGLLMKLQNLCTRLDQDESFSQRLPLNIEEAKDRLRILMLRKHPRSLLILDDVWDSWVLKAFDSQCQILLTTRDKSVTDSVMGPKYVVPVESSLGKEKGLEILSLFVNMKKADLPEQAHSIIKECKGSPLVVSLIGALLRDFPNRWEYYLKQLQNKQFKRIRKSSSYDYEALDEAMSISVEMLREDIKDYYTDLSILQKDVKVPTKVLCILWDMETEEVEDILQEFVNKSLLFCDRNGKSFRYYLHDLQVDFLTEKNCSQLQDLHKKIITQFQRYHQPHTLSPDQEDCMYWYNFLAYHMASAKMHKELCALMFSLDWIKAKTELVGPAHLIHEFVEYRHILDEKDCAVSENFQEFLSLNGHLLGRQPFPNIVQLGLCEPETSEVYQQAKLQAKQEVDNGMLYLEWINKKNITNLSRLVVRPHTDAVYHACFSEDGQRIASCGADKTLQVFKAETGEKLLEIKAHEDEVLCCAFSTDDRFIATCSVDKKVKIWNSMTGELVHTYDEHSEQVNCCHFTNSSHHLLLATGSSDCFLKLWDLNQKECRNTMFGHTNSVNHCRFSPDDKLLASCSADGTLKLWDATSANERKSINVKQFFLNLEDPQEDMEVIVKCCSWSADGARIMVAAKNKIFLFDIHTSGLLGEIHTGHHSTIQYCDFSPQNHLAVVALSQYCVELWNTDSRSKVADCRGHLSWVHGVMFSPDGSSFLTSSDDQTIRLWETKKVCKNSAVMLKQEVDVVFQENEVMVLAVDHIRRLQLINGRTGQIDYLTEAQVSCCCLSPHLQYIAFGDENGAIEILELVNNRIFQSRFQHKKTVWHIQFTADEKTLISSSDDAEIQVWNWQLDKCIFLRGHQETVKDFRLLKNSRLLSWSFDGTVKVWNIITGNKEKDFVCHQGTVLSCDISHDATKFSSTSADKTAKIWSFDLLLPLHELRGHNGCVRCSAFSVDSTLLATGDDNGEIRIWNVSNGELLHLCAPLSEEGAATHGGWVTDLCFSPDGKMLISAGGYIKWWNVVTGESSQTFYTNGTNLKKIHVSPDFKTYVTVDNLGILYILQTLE
In kind it is functional.

Assay [6] deals with T4, Short transient receptor potential channel 4 (Mus musculus, UniProt Q9QUQ5).
T4 sequence (Q9QUQ5 whole entry): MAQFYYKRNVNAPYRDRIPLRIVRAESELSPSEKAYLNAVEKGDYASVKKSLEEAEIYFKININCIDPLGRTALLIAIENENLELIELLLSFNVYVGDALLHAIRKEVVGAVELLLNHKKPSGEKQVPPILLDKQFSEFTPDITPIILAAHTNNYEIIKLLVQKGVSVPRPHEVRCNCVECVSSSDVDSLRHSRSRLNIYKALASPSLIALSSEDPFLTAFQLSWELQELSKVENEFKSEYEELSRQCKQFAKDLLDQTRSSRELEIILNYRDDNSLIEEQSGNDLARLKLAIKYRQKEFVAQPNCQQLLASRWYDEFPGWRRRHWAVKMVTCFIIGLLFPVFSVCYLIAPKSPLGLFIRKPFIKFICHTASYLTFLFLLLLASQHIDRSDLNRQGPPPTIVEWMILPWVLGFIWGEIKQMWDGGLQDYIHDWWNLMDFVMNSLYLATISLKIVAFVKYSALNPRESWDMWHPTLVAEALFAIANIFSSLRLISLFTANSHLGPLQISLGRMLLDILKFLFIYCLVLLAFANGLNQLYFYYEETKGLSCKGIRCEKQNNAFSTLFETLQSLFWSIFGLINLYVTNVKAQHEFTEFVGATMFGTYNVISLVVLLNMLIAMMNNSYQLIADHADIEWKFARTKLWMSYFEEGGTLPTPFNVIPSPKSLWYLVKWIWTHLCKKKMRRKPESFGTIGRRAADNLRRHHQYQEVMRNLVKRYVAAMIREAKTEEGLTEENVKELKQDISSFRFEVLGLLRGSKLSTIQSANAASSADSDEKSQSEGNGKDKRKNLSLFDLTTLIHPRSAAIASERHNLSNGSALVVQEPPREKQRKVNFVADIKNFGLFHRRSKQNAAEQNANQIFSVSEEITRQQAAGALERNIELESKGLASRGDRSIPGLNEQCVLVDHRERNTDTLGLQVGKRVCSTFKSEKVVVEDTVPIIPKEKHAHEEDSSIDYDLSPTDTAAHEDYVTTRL
Briefly: mouse TRPC4 channel activators, dose response, cell-based, HEK293 TRPC4/mu-opioid, Fluo-4 calcium (AID 434937). In kind it is functional.

The target of assay [7] is T1, Ubiquitin-conjugating enzyme E2 N. In kind it is functional. This is another data set of the same source.
Assay [8] addresses Small ubiquitin-related modifier 1 (Homo sapiens, UniProt P63165). Briefly: inhibitors of SUMO1 partner interactions, dose response, biochemical, FRET (AID 624383). Format: functional. The note with it: read-out: IC50_Mean.
Assay [9] deals with 26S proteasome non-ATPase regulatory subunit 14 (Homo sapiens, UniProt O00487). The assay can be described thus: inhibition of proteasome subunit RPN11 – biochemical, fluorescence polarization, uHTS hits, confirmation (AID 602368). Format: functional. A general note: In fluorescence polarisation assays a small probe gives low polarisation when free and higher when bound to something large.

Assay [10] in a line: inhibitors of firefly luciferase expression or activity, dose response, H4 neuroglioma cells, luminescence (AID 1990). In kind it is functional, cell-based.

Molecules are shown by their SMILES. Calls of active or inactive are those of the source.

Small ubiquitin-related modifier 1, sequence (P63165 whole entry): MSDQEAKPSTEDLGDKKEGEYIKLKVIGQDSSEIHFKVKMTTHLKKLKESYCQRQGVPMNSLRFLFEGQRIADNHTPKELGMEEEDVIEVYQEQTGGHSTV
26S proteasome non-ATPase regulatory subunit 14, sequence (O00487 whole entry): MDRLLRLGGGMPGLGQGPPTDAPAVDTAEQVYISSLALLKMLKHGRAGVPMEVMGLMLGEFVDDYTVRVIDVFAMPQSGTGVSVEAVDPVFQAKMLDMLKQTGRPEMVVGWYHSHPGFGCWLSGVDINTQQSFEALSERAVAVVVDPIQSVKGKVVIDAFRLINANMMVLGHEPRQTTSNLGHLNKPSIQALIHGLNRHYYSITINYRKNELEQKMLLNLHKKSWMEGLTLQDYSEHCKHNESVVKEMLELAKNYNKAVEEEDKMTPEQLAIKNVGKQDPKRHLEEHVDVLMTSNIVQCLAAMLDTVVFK

In general, EC50 refers to the concentration that produces a half-maximal response. Take `N=C(N)N/N=C/c1ccc(N(c2ccccc2)c2ccccc2)cc1`: the IC50 was 1.11 µM (active) in assay [1]; 3.85 µM (active) in assay [2]; 28.2 µM (active) in [5]; 8.24 µM (active) in assay [7]; 8.67 µM (active) in assay [8]; 18 µM (active) in [9]. For the same compound, the EC50 was 3.39 µM (active) in [3], 18.5 µM (inconclusive) in assay [4], 9.44 µM (active) in assay [6] and 8.89 µM (active) in [10].
